Results taken from US10562857B2 (AFASCI, Inc., priority 2015, dated 2020).

Tests used:
Assay type in all cases: cell-based
Cardiac Na+ channels = target: T1, Cardiac Na+ channels (Homo sapiens, UniProt Q14524); assay: Cardiac sodium currents in human iPSC-derived cardiomyocytes; details: human iPSC cardiomyocytes
T1 construct: host or cells: human iPSC-derived cardiomyocytes
Description: Cardiac sodium channels play a critical role in heart contraction. Inhibition of these sodium channels could potentially cause severe unwanted side effects. Therefore the representative example compounds in Table 2 were tested in cardiac sodium channels. Cardiomyocytes derived from human induced pluripotent stem cells (iPSC-CM) were obtained from Axol Bioscience Ltd (Cambridge, UK). Cells were thawed and grown on matrigel coated glass coverslips in Cardiomyocyte Maintenance Medium (Axol Bioscience). […] The internal solution was composed (in mM) of 120 KF, 10 HEPES, 11 EGTA, 1 CaCl2, 1 MgCl2, 10 TEA-Cl (pH 7.2 adjusted with KOH). Sodium currents were recorded at a holding potential of −100 mV and depolarized to −20 mV. Cells were incubated with example compounds until currents reached a steady-state level. To determine IC50 values, example compounds were applied gradually from low to high concentrations. The current responses were normalized to the control, percent inhibition was calculated and a sigmoidal dose response curve was plotted to determine IC50 values as described above.

Cav3.1 = target: T2, Cav3.1 (Homo sapiens, UniProt O43497); assay: Whole-cell patch clamp of T-type Cav3.1 channel expressed in HEK293 cells; details: Table 2
T2 construct: expressed in transfected cells; host or cells: HEK-293, tetracycline inducible expression system (Invitrogen)
Description: (§1) Cav3.1, Cav3.2 or Cav3.3 channels were expressed in human embryonic kidney (HEK)-293 cells using a tetracycline inducible expression system (Invitrogen). Cells were maintained in 25 cm^2 tissue culture flasks at 37° C., 5% CO2, and 100% relative humidity in D-MEM/F12 (Dulbecco's Modified Eagle Medium/Nutrient Mixture F-12; Gibco) supplemented with fetal bovine serum (FBS, 10% v/v), sodium pyruvate (0.5 mM, Gibco), penicillin-streptomycin (100 U/mL, 100 μg/mL) and Geneticin® Selective antibiotic (G418; 0.5 mg/mL). Cells were detached from the flask base using a non-enzymatic cell dissociation solution (Cellstripper, Corning), removed and re-seeded on to poly-D-lysine coated glass coverslips in 35 mm dishes.
(§2) Whole-cell voltage clamp recordings were performed on rat or mouse DRG neurons within 2 days after acutely dissociation or cultured HEK293 cells expressing T-type channels (encoded by Cav3.1, Cav3.2 or Cav3.3 channels). All experiments were performed at room temperature (around 21° C.). Whole-cell currents were recorded using a MultiClamp 700B amplifier and analyzed offline with pCLAMP10.4 software (Molecular Devices, LLC, Sunnyvale Calif., USA). […] Since the sodium ions were absent in the external solution, tetrodoctoxin was not needed. Calcium currents were recorded at a holding potential of −100 mV and then depolarized to −30 mV for 100 ms to activate either Cav3.1, Cav3.2, or Cav3.3 expressed in HEK cells. An interpulse interval of 10 seconds allowed the channel recovery from inactivation, and achieved stable current recordings. To record sodium (Na^+) currents in DRG neurons, the external solution used the modified Krebs solution specified above. The internal solution was composed (in mM) of 120 CsF, 10 HEPES, 11 EGTA, 1 CaCl2, 1 MgCl2, 10 TEA-Cl, 4 MgATP and 0.3 MgGTP (pH 7.3-7.4 adjusted with CsOH). […] To record potassium currents in DRG neurons, the external solution used the modified Kreb's solution specified above. The internal solution was composed (in mM) of 65 KCl, 80 KF, 5 KOH, 10 EGTA, 2 MgATP (pH 7.3-7.4 adjusted with KOH). Recording electrodes were fabricated using a P-87 puller (Sutter Instrument Co., Novato, Calif., USA). The tip of resistance was 3-4 MQ in bath and the series resistance was less than 10 MΩ after whole cell configuration. All reagents were purchased from Sigma unless specified otherwise. Test compounds were usually applied via a rapid solution exchange system with 8 fine polyplastic tubings (100 μm, OD) glued in a holder in parallel and located closely to the recorded cells. The current responses were normalized to the control, percent inhibition was calculated and sigmoidal dose-response curves were generated using XLFit (IDBS, Surrey, UK) or Prism (GraphPad Software, La Jolla, Calif., US) to calculate IC50 values and Hill slopes using the following equation Y=Bottom+(Top−Bottom)/(1+10^((Log EC50−X)[…])).

Cav3.3 = target: T3, Cav3.3 (Homo sapiens, UniProt Q9P0X4); assay: Whole-cell patch clamp of T-type Cav3.3 channel expressed in HEK293 cells; details: Table 2
T3 construct: expressed in transfected cells; host or cells: HEK-293, tetracycline inducible expression system (Invitrogen)
Description: as §1, §2

hERG channel = target: T4, hERG channel (Homo sapiens, UniProt Q12809); assay: hERG patch clamp in hERG-expressing CHO cells; details: Table 2; read-out: hERG IC50
T4 construct: expressed in transfected cells; host or cells: CHO
Description: Sodium and potassium channels in the rodent DRG neurons were recorded and tested as described above. The human ether-a-go-go-related gene (hERG) encodes the rapidly activating potassium channel (IKr) contributing to the repolarization of the cardiac action potential. […] Therefore the representative example compounds in Table 2 were tested against the hERG channel.
Whole-cell patch clamp electrophysiology is employed to test compounds and a positive control compound. Extracellular Ringer's solution contains (in mM): NaCl (130), KCl (5), CaCl2 (1), Glucose (10), HEPES-Na (10) (pH 7.4 adjusted with HCl). Internal pipette solution contains (in mM): KF (120), CaCl2 (1), MgCl2 (1), KCl (10), EGTA (11), HEPES (10), KOH (11) (pH 7.2 adjusted with KOH). The hERG potassium currents are recorded under a holding potential of −80 mV and then depolarized to 40 mV for 2.5 seconds to activate the hERG channel. The peak tail currents are induced by a repolarizing pulse to −50 mV for 4 seconds. A 250 millisecond prepulse to −50 mV is applied for leak subtraction. This voltage-clamp pulse protocol is performed continuously during the experiment every 20 seconds allowing recovery from inactivation. For IC50 determination, each concentration is applied for 2 mins to reach a steady-state inhibitory level prior to the next higher concentrations tested. Each concentration is tested at 2-3 times (n=2-3).

T1 sequence (Q14524 whole entry): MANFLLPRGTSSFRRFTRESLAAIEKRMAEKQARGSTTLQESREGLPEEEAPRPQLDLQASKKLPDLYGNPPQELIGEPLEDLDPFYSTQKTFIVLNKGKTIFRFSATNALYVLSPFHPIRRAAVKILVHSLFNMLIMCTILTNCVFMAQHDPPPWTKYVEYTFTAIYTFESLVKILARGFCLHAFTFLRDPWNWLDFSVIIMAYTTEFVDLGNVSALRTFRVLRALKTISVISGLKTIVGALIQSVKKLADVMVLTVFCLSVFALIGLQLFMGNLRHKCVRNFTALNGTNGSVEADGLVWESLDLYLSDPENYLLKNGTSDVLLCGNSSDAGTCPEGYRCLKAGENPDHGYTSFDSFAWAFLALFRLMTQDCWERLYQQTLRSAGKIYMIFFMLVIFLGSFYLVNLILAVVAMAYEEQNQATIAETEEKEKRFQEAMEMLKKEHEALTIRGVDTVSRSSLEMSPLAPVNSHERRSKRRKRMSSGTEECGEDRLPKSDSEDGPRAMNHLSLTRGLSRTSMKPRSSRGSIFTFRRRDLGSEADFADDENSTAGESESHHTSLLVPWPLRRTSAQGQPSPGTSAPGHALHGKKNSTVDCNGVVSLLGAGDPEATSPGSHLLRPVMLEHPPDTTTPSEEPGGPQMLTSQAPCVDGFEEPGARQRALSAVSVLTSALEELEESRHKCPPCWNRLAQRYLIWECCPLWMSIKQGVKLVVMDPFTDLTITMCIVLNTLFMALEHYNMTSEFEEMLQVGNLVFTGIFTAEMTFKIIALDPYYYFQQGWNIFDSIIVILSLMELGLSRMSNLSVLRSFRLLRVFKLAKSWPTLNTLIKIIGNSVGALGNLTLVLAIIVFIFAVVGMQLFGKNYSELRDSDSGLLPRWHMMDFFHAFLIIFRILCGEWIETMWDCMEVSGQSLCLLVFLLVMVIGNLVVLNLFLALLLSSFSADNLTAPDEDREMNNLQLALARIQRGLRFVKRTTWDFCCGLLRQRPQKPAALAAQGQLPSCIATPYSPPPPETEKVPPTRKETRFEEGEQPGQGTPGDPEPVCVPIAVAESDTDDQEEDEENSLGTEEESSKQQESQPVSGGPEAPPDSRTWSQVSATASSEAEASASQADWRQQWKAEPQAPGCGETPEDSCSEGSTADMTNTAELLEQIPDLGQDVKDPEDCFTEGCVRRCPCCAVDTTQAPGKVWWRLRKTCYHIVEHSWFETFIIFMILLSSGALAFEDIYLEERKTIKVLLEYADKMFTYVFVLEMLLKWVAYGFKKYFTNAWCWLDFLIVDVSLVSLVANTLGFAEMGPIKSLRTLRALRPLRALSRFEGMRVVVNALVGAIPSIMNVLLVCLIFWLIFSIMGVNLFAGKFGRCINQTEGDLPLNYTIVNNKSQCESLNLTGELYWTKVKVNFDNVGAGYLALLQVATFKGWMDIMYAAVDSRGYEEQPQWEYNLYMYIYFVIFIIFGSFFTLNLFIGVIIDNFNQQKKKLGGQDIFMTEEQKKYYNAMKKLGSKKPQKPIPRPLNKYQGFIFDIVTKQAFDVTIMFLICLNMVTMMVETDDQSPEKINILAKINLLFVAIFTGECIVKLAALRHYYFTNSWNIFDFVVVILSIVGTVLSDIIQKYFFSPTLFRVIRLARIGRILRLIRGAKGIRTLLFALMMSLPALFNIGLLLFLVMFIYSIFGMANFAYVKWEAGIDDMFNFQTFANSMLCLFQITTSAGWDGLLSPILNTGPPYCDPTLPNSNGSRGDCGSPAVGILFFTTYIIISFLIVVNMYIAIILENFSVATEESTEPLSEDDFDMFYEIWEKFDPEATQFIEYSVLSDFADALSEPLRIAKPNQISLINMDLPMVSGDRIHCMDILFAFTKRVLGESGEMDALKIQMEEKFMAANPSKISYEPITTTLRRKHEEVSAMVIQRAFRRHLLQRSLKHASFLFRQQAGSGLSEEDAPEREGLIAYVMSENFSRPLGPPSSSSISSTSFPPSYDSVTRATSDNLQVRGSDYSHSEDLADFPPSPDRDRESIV
T2 sequence (O43497 whole entry): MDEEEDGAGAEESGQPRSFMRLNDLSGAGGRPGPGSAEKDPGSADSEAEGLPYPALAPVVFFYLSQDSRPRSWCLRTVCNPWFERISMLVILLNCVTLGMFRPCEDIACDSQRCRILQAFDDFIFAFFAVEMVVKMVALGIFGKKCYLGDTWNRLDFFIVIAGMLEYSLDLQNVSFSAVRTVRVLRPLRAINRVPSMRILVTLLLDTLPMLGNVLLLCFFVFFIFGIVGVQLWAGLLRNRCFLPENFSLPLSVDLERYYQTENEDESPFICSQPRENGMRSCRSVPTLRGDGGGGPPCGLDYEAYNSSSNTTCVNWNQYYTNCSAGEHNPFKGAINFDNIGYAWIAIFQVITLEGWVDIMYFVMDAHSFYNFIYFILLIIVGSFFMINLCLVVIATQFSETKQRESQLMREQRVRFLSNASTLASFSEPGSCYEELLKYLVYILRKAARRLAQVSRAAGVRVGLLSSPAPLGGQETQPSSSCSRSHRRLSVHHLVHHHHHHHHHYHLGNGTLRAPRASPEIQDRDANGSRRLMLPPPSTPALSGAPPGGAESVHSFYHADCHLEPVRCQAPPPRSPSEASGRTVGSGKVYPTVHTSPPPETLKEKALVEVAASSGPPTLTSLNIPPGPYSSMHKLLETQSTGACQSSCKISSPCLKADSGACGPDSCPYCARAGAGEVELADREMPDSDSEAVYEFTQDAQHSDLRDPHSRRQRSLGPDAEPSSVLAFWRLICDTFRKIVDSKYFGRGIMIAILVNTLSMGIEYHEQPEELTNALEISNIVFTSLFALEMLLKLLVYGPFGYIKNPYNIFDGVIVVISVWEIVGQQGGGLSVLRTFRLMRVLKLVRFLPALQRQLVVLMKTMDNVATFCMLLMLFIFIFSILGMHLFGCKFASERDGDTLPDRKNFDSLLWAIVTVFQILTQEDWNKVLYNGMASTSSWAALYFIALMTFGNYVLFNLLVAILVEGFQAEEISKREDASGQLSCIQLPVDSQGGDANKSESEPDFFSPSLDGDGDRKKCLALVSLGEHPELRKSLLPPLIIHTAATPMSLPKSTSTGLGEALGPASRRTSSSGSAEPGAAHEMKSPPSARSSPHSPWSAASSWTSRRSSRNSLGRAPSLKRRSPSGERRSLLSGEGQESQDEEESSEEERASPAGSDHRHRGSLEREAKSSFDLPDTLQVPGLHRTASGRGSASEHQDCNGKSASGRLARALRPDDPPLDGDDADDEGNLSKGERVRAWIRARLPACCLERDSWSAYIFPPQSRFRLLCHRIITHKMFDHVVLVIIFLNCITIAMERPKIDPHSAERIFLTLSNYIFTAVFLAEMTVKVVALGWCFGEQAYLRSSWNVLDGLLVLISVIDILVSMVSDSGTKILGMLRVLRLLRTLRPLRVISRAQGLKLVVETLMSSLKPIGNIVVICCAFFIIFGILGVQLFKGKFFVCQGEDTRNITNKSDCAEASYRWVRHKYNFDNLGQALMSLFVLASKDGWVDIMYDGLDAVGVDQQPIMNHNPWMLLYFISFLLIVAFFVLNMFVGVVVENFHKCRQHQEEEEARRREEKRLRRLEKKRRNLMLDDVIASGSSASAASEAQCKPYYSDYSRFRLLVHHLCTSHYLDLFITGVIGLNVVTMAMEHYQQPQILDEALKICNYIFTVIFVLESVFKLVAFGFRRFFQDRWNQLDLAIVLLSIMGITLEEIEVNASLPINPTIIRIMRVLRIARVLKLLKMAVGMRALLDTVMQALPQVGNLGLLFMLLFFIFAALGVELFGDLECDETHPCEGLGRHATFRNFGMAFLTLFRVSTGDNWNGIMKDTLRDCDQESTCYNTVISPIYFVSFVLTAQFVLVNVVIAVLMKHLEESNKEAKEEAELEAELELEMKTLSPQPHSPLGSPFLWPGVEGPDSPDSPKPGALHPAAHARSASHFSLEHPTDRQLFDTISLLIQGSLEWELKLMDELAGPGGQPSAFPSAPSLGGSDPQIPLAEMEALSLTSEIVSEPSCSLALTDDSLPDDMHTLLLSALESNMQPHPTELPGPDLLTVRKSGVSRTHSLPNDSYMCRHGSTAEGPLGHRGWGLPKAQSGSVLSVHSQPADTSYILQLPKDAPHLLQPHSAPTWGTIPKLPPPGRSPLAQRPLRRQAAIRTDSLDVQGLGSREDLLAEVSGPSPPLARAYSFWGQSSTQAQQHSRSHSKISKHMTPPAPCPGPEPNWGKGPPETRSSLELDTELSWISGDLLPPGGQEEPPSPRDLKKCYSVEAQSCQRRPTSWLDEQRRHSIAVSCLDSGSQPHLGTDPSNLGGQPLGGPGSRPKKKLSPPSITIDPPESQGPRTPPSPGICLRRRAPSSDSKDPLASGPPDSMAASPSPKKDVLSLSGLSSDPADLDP

Structure (SMILES) | IC50 (Cardiac Na+ channels) [µM] | IC50 (Cav3.1) [nM] | IC50 (Cav3.3) [nM] | IC50 (hERG channel) [µM]
CC(C)(C)CCN1C[C@@H]2[C@@H](CNC(=O)c3cc(Cl)cc(Cl)c3)[C@@H]2C1 [ML218, 3,5-Dichloro-N-[[(1α,5α,6-exo,6α)-3-(3,3-dimethylbutyl)-3-azabicyclo[3.1.0]hex-6-yl]methyl]benzamide, reference compound] | 39.8 | 140 | 270 | 2.1
CC(C)(C)NC(=O)CN1CCC(CNC(=O)c2cc(F)cc(Cl)c2)CC1 [Z944, reference compound] | 21.4 | 110 | 570 | 9.5
